The numbers were not newly measured in patent US12318461B2, “Salicylic acid gel” (Vantage Specialty Ingredients, Inc., priority 2012, dated 2025), which cites them from elsewhere.

SMILES strings stand for the structures.

With `O=C(O)c1ccccc1O` [Salicylic acid, 2-hydroxybenzenecarboxylic acid], the solubility in water entry is reported as “poorly soluble”.
